Where two headings read alike, the source gives them in different places.
Experiments:
[1] = system: A549 (human lung carcinoma) cells; assay: Cell Viability Assay (CellTiter-Glo), A549; type: cell-based
Summary of the method: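 RPMI 1640/10% FBS; seed 1.67E+04 cells/mL, o/n 37° C., 5% CO2; serial-dilution cmpd 72 h; CellTiter-Glo luminescence vs DMSO; 4-parameter logistic fit → IC50.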

KRAS G12C = KRAS G12C (Homo sapiens (Human), UniProt P01116, C118A/G12C); assay: 2 h coupled exchange assay; type: biochemical
Sequence of KRAS G12C (P01116 other isoform, or with tags, fused parts or gaps G12C/C118A): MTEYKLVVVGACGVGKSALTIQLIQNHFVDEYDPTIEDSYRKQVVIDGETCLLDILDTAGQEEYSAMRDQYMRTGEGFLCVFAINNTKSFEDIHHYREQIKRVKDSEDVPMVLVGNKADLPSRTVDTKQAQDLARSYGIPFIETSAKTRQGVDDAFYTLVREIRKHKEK
Experimental: The term “2 h coupled exchange assay” or “20 h coupled exchange assay” as used herein refers to the assay described in the Section entitled “BIOLOGICAL EVALUATION.”

[2] = system: MIA PaCa-2 (human pancreatic carcinoma) cells; assay: Cell Viability Assay (CellTiter-Glo), MIA PaCa-2; type: cell-based
Experimental: Serially-diluted compound or DMSO was added to the cells, and plates were incubated at 37° C., 5% CO2 for 72 h. Cell viability was measured using a CellTiter-Glo® Luminescent Cell Viability Assay kit (Promega) according to the manufacturer's protocol. The luminescence signal of treated samples was normalized to DMSO control, and data were analyzed using a 4-parameter logistic model to calculate IC50 values.

[3] = Avg 2 h Coupled exchange IC50, 2 h compound pre-incubation
[4] = Avg 2 h Coupled exchange IC50, 2 h compound pre-incubation, SOS-mediated nucleotide exchange

Structure (SMILES)	IC50 ([1]; Homo sapiens, A549, 72 h) [nM]	IC50 (KRAS G12C; [3]) [nM]	IC50 ([2]; Homo sapiens, MIA PaCa-2, 72 h) [nM]	IC50 (KRAS G12C; [4]) [nM]	IC50 ([1]; 72 h) [nM]	IC50 (KRAS G12C; read-out: Avg 2 h Coupled exchange IC50, 2 h compound pre-incubation) [nM]	IC50 ([2]; 72 h) [nM]
C=CC(=O)N1CC2(CCN(c3nc4c(c(-c5cc(O)ccc5F)c3C#N)CCN(c3scnc3C)C4)C2)C1 [Example 21-19, 4-(2-fluoro-5-hydroxyphenyl)-7-(4-methyl-1,3-thiazol-5-yl)-2-(2-(2-propenoyl)-2.6-diazaspiro[3.4]octan-6-yl)-5,6,7,8-tetrahydro-1,7-naphthyridine-3-carbonitrile]	> 5000	35	1170				
C=CC(=O)N1CC2(CCN(c3nc4c(c(-c5ncccc5F)c3C#N)CCN(c3scnc3C)C4)C2)C1 [Example 21-10, 4-(3-fluoro-2-pyridinyl)-7-(4-methyl-1,3-thiazol-5-yl)-2-(2-(2-propenoyl)-2,6-diazaspiro[3.4]octan-6-yl)-5,6,7,8-tetrahydro-1,7-naphthyridine-3-carbonitrile]	> 5000	189	716				
C=CC(=O)N1CC2(CCN(c3nc4c(c(-c5c(C)c(C)cc6cnn(C)c56)c3C)[C@@H]3CC[C@H]4C3)C2)C1 (atropisomer, axis not shown; (M)) [Example 2-111, (M)-1-(6-((1S,8R)-5-methyl-6-(1,5,6-trimethyl-1H-indazol-7-yl)-3-azatricyclo[6.2.1.0^2,7]undeca-2,4,6-trien-4-yl)-2,6-diazaspiro[3.4]octan-2-yl)-2-propen-1-one]	10900		210	3			
C=CC(=O)N1CC2(CCN(c3nc4c(c(-c5cc(O)ccc5C)c3F)C[C@H]3C[C@@H]4C3(C)C)C2)C1 [Example 14-50, 1-(6-((1R,9R)-5-fluoro-6-(5-hydroxy-2-methylphenyl)-10,10-dimethyl-3-azatricyclo[7.1.1.0^2,7]undeca-2,4,6-trien-4-yl)-2,6-diazaspiro[3.4]octan-2-yl)-2-propen-1-one]	> 5000	65	1610				
C=CC(=O)N1CC2(CCN(c3nc4c(c(-c5ccccc5F)c3C#N)CCN(c3scnc3C)C4)C2)C1 [Example 21-1, 4-(2-fluorophenyl)-7-(4-methyl-1,3-thiazol-5-yl)-2-(2-(2-propenoyl)-2,6-diazaspiro[3.4]octan-6-yl)-5,6,7,8-tetrahydro-1,7-naphthyridine-3-carbonitrile]	> 5000	41	327				
C=CC(=O)N1CC2(CCN(c3nc4c(c(-c5c(C)ccc6cn[nH]c56)c3C#N)COC(C)(C)C4)C2)C1 (single isomer, unassigned) [Example 14-81, (P)-7,7-dimethyl-4-(6-methyl-1H-indazol-7-yl)-2-(2-(2-propenoyl)-2,6-diazaspiro[3.4]octan-6-yl)-7,8-dihydro-5H-pyrano[4,3-b]pyridine-3-carbonitrile]	> 5000	45	92				
C=CC(=O)N1CC2(CCN(c3cn4cc(-c5ccccc5)nc4c(-c4c(C)ccc5[nH]ncc45)c3C#N)C2)C1 [Example 1-38, 8-(5-methyl-1H-indazol-4-yl)-2-phenyl-6-(2-(2-propenoyl)-2,6-diazaspiro[3.4]octan-6-yl)imidazo[1,2-al]yridine-7-carbonitrile]	6250		294	103			
C=CC(=O)N1CC2(CCN(c3nc4cc(-c5scnc5C)ccc4c(-c4c(C)ccc5[nH]ncc45)c3C)C2)C1 [Example 15-3, 1-(6-(3-methyl-4-(5-methyl-1H-indazol-4-yl)-7-(4-methyl-1,3-thiazol-5-yl)-2-quinolinyl)-2,6-diazaspiro[3.4]octan-2-yl)-2-propen-1-one]	> 5000	62	1120				
C=CC(=O)N1CC2(CCN(c3nc4c(c(-c5c(C)ccc6cnn(C)c56)c3C)CCN(C3(C)COC3)C4)C2)C1 (atropisomer, axis not shown; (P)) [Example 36-3, (P)-1-(6-(4-(1,6-dimethyl-1H-indazol-7-yl)-3-methyl-7-(3-methyl-3-oxetanyl)-5,6,7,8-tetrahydro-1,7-naphthyridin-2-yl)-2,6-diazaspiro[3.4]octan-2-yl)-2-propen-1-one]					18800	65300	11000
C=CC(=O)N1CC2(CCN(c3nc4c(c(-c5cc(O)ccc5C)c3Cl)COC(C)(C)C4)C2)C1 [Example 2-79, 1-(6-(3-chloro-4-(5-hydroxy-2-methylphenyl)-7,7-dimethyl-7,8-dihydro-5H-pyrano[4,3-b]pyridin-2-yl)-2,6-diazaspiro[3.4]octan-2-yl)-2-propen-1-one]	> 5000		159	71			
C=CC(=O)N1CC2(CCN(c3nc4c(c(-c5cccc6cccc(Cl)c56)n3)CCCC4)C2)C1 [Example 1-9, 1-(6-(4-(8-chloro-1-naphthalenyl)-5,6,7,8-tetrahydro-2-quinazolinyl)-2,6-diazaspiro[3.4]octan-2-yl)-2-propen-1-one]	> 25000		18100	4580			
C=CC(=O)N1CC2(CCN(c3nc4c(c(-c5cc(O)ccc5C)c3C)COC(C)(C)C4)C2)C1 (single isomer, unassigned) [Example 14-31, (M)-1-(6-(4-(5-hydroxy-2-methylphenyl)-3,7,7-trimethyl-7,8-dihydro-5H-pyrano[4,3-b]pyridin-2-yl)-2,6-diazaspiro[3.4]octan-2-yl)-2-propen-1-one]	> 5000	106	105				
C=CC(=O)N1CC2(C1)CN(c1nc3c(F)cccc3c(-c3c(C)ccc4[nH]ncc34)c1C#N)CC2(F)F [Example 1-39, 2-(8,8-difluoro-2-(2-propenoyl)-2,6-diazaspiro[3.4]octan-6-yl)-8-fluoro-4-(5-methyl-1H-indazol-4-yl)-3-quinolinecarbonitrile]	6250		2740	757			
C=CC(=O)N1CC2(CCN(c3nc4c(c(-c5cc(O)ccc5F)c3C#N)C[C@H]3C[C@@H]4C3(C)C)C2)C1 [Example 2-66, (1R,9R)-6-(2-fluoro-5-hydroxyphenyl)-10,10-dimethyl-4-(2-(2-propenoyl)-2,6-diazaspiro[3.4]octan-6-yl)-3-azatricyclo[7.1.1.0^2,7]undeca-2,4,6-triene-5-carbonitrile]	> 5000		735	89			
C=CC(=O)N1CC2(CCN(c3nc4c(c(-c5ncccc5C)c3C#N)CCC(c3scnc3C)=C4)C2)C1 (single isomer, unassigned) [Example 23-25, (P)-4-(3-methyl-2-pyridinyl)-7-(4-methyl-1,3-thiazol-5-yl)-2-(2-(2-propenoyl)-2,6-diazaspiro[3.4]octan-6-yl)-5,6-dihydro-3-quinolinecarbonitrile]		196			> 5000		480
C=CC(=O)N1CC2(CCN(c3nc4cc(-n5ccnc5C)ccc4c(-c4ccccc4F)c3C#N)C2)C1 [Example 17-5, 4-(2-fluorophenyl)-7-(2-methyl-1H-imidazol-1-yl)-2-(2-(2-propenoyl)-2,6-diazaspiro[3.4]octan-6-yl)-3-quinolinecarbonitrile]	4430	70	1270				
C=CC(=O)N1CC2(CCN(c3nc4c(c(-c5c(C)ccc6[nH]ncc56)c3C#N)CC(C)(C)C4)[C@@H]2C)C1 (atropisomer, axis not shown; (P)) [Example 13-54, (P)-6,6-dimethyl-4-(5-methyl-1H-indazol-4-yl)-2-((5R)-5-methyl-2-(2-propenoyl)-2,6-diazaspiro[3.4]octan-6-yl)-6,7-dihydro-5H-cyclopenta[b]pyridine-3-carbonitrile]	> 5000		58	17			
C=CC(=O)N1CC2(CCN(c3nc4c(c(-c5cccc6cc(O)ccc56)c3C)CCN(C(C)COC)C4)C2)C1 [Example 18-8, 1-(6-(4-(6-hydroxy-1-naphthalenyl)-7-((2R)-1-methoxy-2-propanyl)-3-methyl-5,6,7,8-tetrahydro-1,7-naphthyridin-2-yl)-2,6-diazaspiro[3.4]octan-2-yl)-2-propen-1-one|1-(6-(4-(6-hydroxy-1-naphthalenyl)-7-((2S)-1-methoxy-2-propanyl)-3-methyl-5,6,7,8-tetrahydro-1,7-naphthyridin-2-yl)-2,6-diazaspiro[3.4]octan-2-yl)-2-propen-1-one]	> 5000	47	170				
C=CC(=O)N1CC2(CCN(c3nc4c(c(-c5ccc(F)cc5F)c3C#N)CCN(c3scnc3C)C4)[C@H]2C)C1 [Example 21-16, 4-(2,4-difluorophenyl)-2-((5S)-5-methyl-2-(2-propenoyl)-2,6-diazaspiro[3.4]octan-6-yl)-7-(4-methyl-1,3-thiazol-5-yl)-5,6,7,8-tetrahydro-1,7-naphthyridine-3-carbonitrile]	5110	108	931				
C=CC(=O)N1CC2(CCN(c3nc4c(c(-c5c(C)ccc6cnn(C)c56)c3C#N)[C@@H]3CC[C@H]4C3)C2)C1 (single isomer, unassigned) [Example 14-17]	> 5000		51	22			
C=CC(=O)N1CC2(CCN(c3nc4c(c(-c5ccccc5F)c3C#N)CCC(c3scnc3C)=C4)C2)C1 [Example 23-7, 4-(2-fluorophenyl)-7-(4-methyl-1,3-thiazol-5-yl)-2-(2-(2-propenoyl)-2,6-diazaspiro[3.4]octan-6-yl)-5,6-dihydro-3-quinolinecarbonitrile]	3690	72	918				

From patent US20240059703A1 (AMGEN INC., priority 2021, published 2024)
